Values quoted from earlier work as cited in patent US20030004142A1, “Use of NSAIDs for prevention and treatment of cellular abnormalities of the lung or bronchial pathway” (priority 2001, published 2003).

Legend:
[1] = test system: OPC
[2] = test system: OPC cell lines; settings: all OPC cell lines tested
[3] = test system: OPC cell lines; settings: all OPC cell lines tested; remark: listed apart in the source

For `O=C(c1ccccc1)c1ccc2n1CCC2C(=O)O` (stereo not shown) [ketorolac, (.+−.)5(benzoyl)-2,3-dihydro-1H-pyrrolizine-1carboxylic acid], the “OPC growth in vivo” value [1] is listed as “reduced OPC growth in vivo”, the PGE2 production [2] is listed as “continuously and significantly decreased” and the IL-6 levels [3] is listed as “continuously and significantly decreased”. For the same compound, the IL-8 levels [3] was “continuously and significantly decreased”.
